The subject of the assay is RAW264.7. Put plainly: Antiinflammatory activity against IFN-gamma, TNF-alpha and IL-1-stimulated mouse RAW264.7 cells assessed as inhibition of cellular iNOS synthesis. It counts as functional, cell-based.
With `CC1(C)CC[C@]2(C(=O)O)CC[C@]3(C)[C@H](C(=O)C=C4[C@@]5(C)C=CC(=O)C(C)(C)[C@@H]5CC[C@]43C)[C@@H]2C1`, the IC50 amounted to 0.2 µM.

For the molecule `C[C@H]1[C@H](C)CC[C@]2(C(=O)O)CC[C@]3(C)C(=CC[C@@H]4[C@@]5(C)C=CC(=O)C(C)(C)[C@@H]5CC[C@]43C)[C@H]12`, the IC50 amounted to 6 µM.

As to `C[C@H]1[C@H](C)CC[C@]2(C(=O)O)CC[C@]3(C)C(=CC(=O)[C@@H]4[C@@]5(C)C=CC(=O)C(C)(C)[C@@H]5CC[C@]43C)[C@H]12`, the IC50 is 17.6 µM.

The values are drawn from ChEMBL document CHEMBL1765043, “New synthetic triterpenoids: potent agents for prevention and treatment of tissue injury caused by inflammatory and oxidative stress” (J Nat Prod, 2011).
